Each structure is given as a SMILES string.

Data set [1] is described as follows: Oral gavage pharmacokinetics in rats, plasma oxycodone by LC-MS/MS. The settings on record: 0.89 mg/kg oral, rat, 4 h.
A short description of data set [2]: Dissolution of test article in dosing formulation. The settings on record: Ex No. B1a, 6.72 mg/kg group, 0.5% methylcellulose vehicle, equivalent to 2 mg/mL oxymorphone HCl.

For `CCCCCCCC/C=C\CCCCCCCC(=O)OC1=CC[C@@]2(O)[C@H]3Cc4ccc(OC)c5c4[C@@]2(CCN3C)[C@H]1O5.Cl` [Oxycodone Oleate, (4R,4aS,7aR,12bS)-4a-Hydroxy-9-methoxy-3-methyl-2,3,4,4a,5,7a-hexahydro-1H-4,12-methanobenzofuro[3,2-e]isoquinolin-7-yl oleate hydrochloride], in data set [1], the “Plasma Concentration (oxycodone) by Subject” value is “BLQ”. Also, in data set [1] (mean of the N quantifiable subjects), the “Plasma Concentration (oxycodone), Mean” value is listed as “BLQ”.

In the case of `CN1CC[C@]23c4c5ccc(O)c4O[C@H]2C(OC(=O)[C@@H](O)c2ccccc2)=CC[C@@]3(O)[C@H]1C5.Cl` [Oxymorphone Mandelate], the “Solubility of test article in dosing formulation” value in data set [2] was “(not completely soluble)”.

The record behind these values is patent publication US10695342B2, “Methods and compositions for preventing opioid abuse” (Albany Molecular Research, Inc., priority 2015, dated 2020).
